Results reported in patent US7655810B2, “Phosphine transition metal complex, method for producing the same, and antitumor agent containing the same” (Nippon Chemical Industrial Co., Ltd., priority 2005, dated 2010).

Key:
[1] = test system: HL-60 (human acute myelocytic leukemia cells); test: Evaluation of antitumor activity, MTT viable cell count (modified Mosmann method); type: cell-based; details: read-out: IC50 (50% inhibitory concentration from viable cell count), HL-60 cells, 24 hours culture, average of at least three measured values
Procedure: Cisplatin was also evaluated as a comparative example by the same method.
HL-60 (human acute myelocytic leukemia cells) was used as cancer cells. The cells were cultured in Rosewell Park Memorial Institute medium (RPMI 1640) supplemented with 10% fetal bovine serum, 1% antibiotic, and an antifungal agent in an atmosphere of 5% carbon dioxide in a moist incubator at 37° C.
The cells were washed with PBS. After the cell count was determined, a suspension (1×10^5 cells/mL) was prepared with the same medium. The suspension was seeded at a density of […] in a sterile 96-well microplate.
The prepared solutions were respectively added to the wells and cultured in the incubator for 24 hours.
The viable cell count was determined by a modified Mosmann method (T. Mosmann, J. Immunol. Method (1983) 65, 55-63). More specifically, a solution of a tetrazolium salt (3,[4,5-dimethylthiazole-2-yl]-2,5-diphenyltetrazolium bromide, MTT) was added to the wells. The wells were cultured for another 3 hours under the same conditions. Formazan crystals formed by the enzyme activity of mitochondria in the cells were dissolved in 0.04 mol/L HCl isopropyl alcohol solution, and the absorbance of each well was measured at 595 nm with a microplate reader (Bio-Rad 550). The background noises were canceled by subtracting the absorbance at 630 nm from the absorbance at 595 nm to obtain a viable cell count. […] For the calculation for IC50, at least three measured values obtained under the same conditions were averaged.

[2] = test system: female Sprauge-Dawley SPF rats; test: Toxicity test by single oral administration to rats; type: in vivo, rat
Procedure: After female Sprauge-Dawley SPF rats (CrJ: CD (SD)) were quarantined and acclimated for about a week, healthy 8-week-old rats were selected in groups of five rats. The rats was fasted overnight before administration, and single oral doses of 20, 50, 100, and 300 mg/kg of the phosphine gold complex, and 10, 20, 50, and 100 mg/kg of cisplatin dissolved in corn oil were administrated the respective rats. The rats were observed 10 and 30 minutes and 1, 2, and 4 hours after administration, and further observed daily until the 14th day.

Row | Substance | IC50 [1] | Change in general conditions, body weight and internal organs ([2]; single oral administration, over the period of the test (14 days)) | Survival of rats ([2]; single oral doses of 20, 50, 100 and 300 mg/kg, until the 14th day)
1 | Bis(1,2-bis((2R,5R)-2,5-(dimethylphosphorano)benzene))gold (I) Chloride [Example 4] | 542 nM | no specific change in general conditions, body weight, and internal organs was observed | did not die even at the 14th day
2 | Bis(1,2-bis((2S,5S)-2,5-(dimethylphosphorano)benzene))gold (I) Chloride [Example 3] | 3550 nM | – | –
3 | Bis((+)-1,2-bis((2R,5R)-2,5-dimethylphosphorano)ethane)gold (I) Chloride [Example 1] | 2750 nM | – | –
4 | Bis((−)-1,2-bis((2S,5S)-2,5-dimethylphosphorano)ethane)gold (I) Chloride [Example 2] | 1660 nM | – | –
